# From patent publication US6727253B2, “Treatment of accidental extravasation of anthracyclines” (Antianthra APS, priority 1999, dated 2004)
# Read-outs that look alike come from different tables or passages of the source.
# Tested on: SC daunorubicin induced wounds in mice
# Settings: for AUC / DW / FW / TTW: Table A
# Protocol: The mice were euthanized after healing of all wounds.
# The effect of various doses of ICRF-187 was investigated in Example 3.
# Comparison of two concentrations of sc daunorubicin were compared with and without simultaneous treatment with ICRF-187 250 mg/kg.
# ICRF-187 was administered at the same time as daunorubicin, 3 hours after, and 6 hours after, respectively. Saline served as control. The dose of daunorubicin was 3 mg/kg so and ICRF-187 was administered IP in a 250 mg/kg solution. Twenty-eight mice were used. The results are depicted in data sheet #6 and the mean AUCs are shown graphically in FIG. 5.
# 100 mg/kg ICRF-187 was injected into the subcutaneous papule produced by injected daunorubicin. This treatment was compared to intralesional saline control, IP saline control, and IP treatment with ICRF-187.
# […]. Seven experiments (n=6, 7, 7, 9, 9, 9, and 9) with 3 mg/kg daunorubicin SC plus saline IP at t=0 and seven experiments (n=6, 7, 7, 9, 9, 8, and 9) with 3 mg/kg daunorubicin SC plus 250 mg/kg ICRF-187 IP at t=0tin two experiments (n=9 and 4) the ICRF-187 doses were 62,5 mg/kg and 375 mg/kg IP, respectively, in two (n=7 and 9) the dose was 125 mg/kg. ICRF-187 250 mg/kg was administered IV in one (n=9).
# [1] = Example 3, daunorubicin 3 mg/kg sc + ICRF-187 250 mg/kg IP
# [2] = Example 3, daunorubicin 3 mg/kg sc + ICRF-187 375 mg/kg IP
# [3] = Example 4, daunorubicin 1 mg/kg sc + ICRF-187 250 mg/kg IP simultaneous
# [4] = Example 4, daunorubicin 3 mg/kg sc + ICRF-187 250 mg/kg IP simultaneous
# [5] = Example 5, daunorubicin 1 mg/kg sc + ICRF-187 250 mg/kg IP
# [6] = Example 5, daunorubicin 3 mg/kg sc + ICRF-187 250 mg/kg IP
# [7] = Example 6, daunorubicin 3 mg/kg sc + ICRF-187 250 mg/kg IP 3 hours after daunorubicin
# [8] = Example 6, daunorubicin 3 mg/kg sc + ICRF-187 250 mg/kg IP 6 hours after daunorubicin
# [9] = Example 6, daunorubicin 3 mg/kg sc + ICRF-187 250 mg/kg IP at the same time
# [10] = Example 7, daunorubicin 3 mg/kg sc + 0.05 ml ICRF-187 100 mg/kg IL
# [11] = Example 7, daunorubicin 3 mg/kg sc + ICRF-187 250 mg/kg IP
# [12] = daunorubicin 1 mg/kg SC + DEX 250 mg/kg IP at t=0, pooled data
# [13] = daunorubicin 3 mg/kg SC + DEX 125 mg/kg IP at t=0, +3h and +6h
# [14] = daunorubicin 3 mg/kg SC + DEX 125 mg/kg IP at t=0, pooled data
# [15] = daunorubicin 3 mg/kg SC + DEX 250 mg/kg IP at t=0, pooled data
# [16] = daunorubicin 3 mg/kg SC + DEX 250 mg/kg IP at t=0, pooled data, listed as DEX
# [17] = daunorubicin 3 mg/kg SC + DEX 250 mg/kg IP at t=+3h
# [18] = daunorubicin 3 mg/kg SC + DEX 250 mg/kg IP at t=+6h
# [19] = daunorubicin 3 mg/kg SC + DEX 250 mg/kg IP day 0, 1, and 2
# [20] = daunorubicin 3 mg/kg SC + DEX 250 mg/kg IV at t=0
# [21] = daunorubicin 3 mg/kg SC + DEX 375 mg/kg IP at t=0
# [22] = daunorubicin 3 mg/kg SC + DEX 62,5 mg/kg IP at t=0
# [23] = daunorubicin 3 mg/kg SC + DEX 62,5 mg/kg IP at t=0, +3h and +6h
# [24] = pooled, daunorubicin 3 mg/kg SC, ICRF-187 250 mg/kg IP at t=0, p<0.0001
smiles,measurement,setting,value
"C[C@@H](CN1CC(=O)NC(=O)C1)N1CC(=O)NC(=O)C1 [ICRF-187, (+)-1,2-bis(3,5-dioxopiperazinyl-1-yl)propane]",Mean AUC,[1],395 mm^2 × days
same,Mean DWw ± SEM,[1],29.2 ± 1.1 days
same,Mean TTWw ± SEM,[1],7.8 ± 1.1 days
same,Nw/NG,[1],83%
same,Mean AUC,[2],57 mm^2 × days
same,Mean DWw ± SEM,[2],27.0 ± 0.0 days
same,Mean TTWw ± SEM,[2],4.0 ± 0.0 days
same,Nw/NG,[2],25%
same,reduction of the AUC,"Example 3, daunorubicin 3 mg/kg sc, ICRF-187 250 mg/kg vs saline, p<0.05",48%
same,reduction of the AUC,"Example 3, daunorubicin 3 mg/kg sc, ICRF-187 375 mg/kg vs saline, p<0.05",93%
same,reduction in AUC,"Example 4, daunorubicin 1 mg/kg sc (low dose), ICRF-187 250 mg/kg IP, p<0.05",100%
same,Mean AUC,[3],0 mm^2 × days
same,Nw/NG,[3],0%
same,reduction in AUC,"Example 4, daunorubicin 3 mg/kg sc (high dose), ICRF-187 250 mg/kg IP, p<0.05",75%
same,Mean AUC,[4],313 mm^2 × days
same,Mean DWw ± SEM,[4],14.0 ± 1.5 days
same,Mean TTWw ± SEM,[4],12.0 ± 3.5 days
same,Nw/NG,[4],43%
same,Mean AUC,[5],50 mm^2 × days
same,Mean DWw ± SEM,[5],16.0 ± 4.0 days
same,Mean TTWw ± SEM,[5],10.5 ± 3.5 days
same,Nw/NG,[5],22%
same,reduction of AUC,"Example 5, daunorubicin 1 mg/kg sc, ICRF-187 250 mg/kg IP, p<0.05",73%
same,Mean AUC,[6],158 mm^2 × days
same,Mean DWw ± SEM,[6],13.7 ± 1.7 days
same,Mean TTWw ± SEM,[6],9.9 ± 1.8 days
same,Nw/NG,[6],78%
same,reduction of AUC,"Example 5, daunorubicin 3 mg/kg sc, ICRF-187 250 mg/kg IP, p<0.05",83%
same,Mean AUC,[7],421 mm^2 × days
same,Mean DWw ± SEM,[7],21.0 ± 4.0 days
same,Mean TTWw ± SEM,[7],7.0 ± 0.6 days
same,Nw/NG,[7],43%
same,Mean AUC,[8],926 mm^2 × days
same,Mean DWw ± SEM,[8],24.9 ± 0.8 days
same,Mean TTWw ± SEM,[8],6.7 ± 0.6 days
same,Nw/NG,[8],100%
same,Mean AUC,[9],326 mm^2 × days
same,Mean DWw ± SEM,[9],19.6 ± 0.7 days
same,Mean TTWw ± SEM,[9],7.7 ± 0.5 days
same,Nw/NG,[9],100%
same,AUC reduced,"Example 6, daunorubicin 3 mg/kg sc, ICRF-187 250 mg/kg IP 6 hours delay, statistically non-significant",34%
same,AUC reduced,"Example 6, daunorubicin 3 mg/kg sc, ICRF-187 250 mg/kg IP at t=0, p<0.05",77%
same,AUC reduced,"Example 6, daunorubicin 3 mg/kg sc, ICRF-187 250 mg/kg IP at t=+3 hours, p<0.05",70%
same,Mean AUC,[10],403 mm^2 × days
same,Mean DWw ± SEM,[10],19.4 ± 2.3 days
same,Mean TTWw ± SEM,[10],6.9 ± 1.6 days
same,Nw/NG,[10],78%
same,Mean AUC,[11],562 mm^2 × days
same,Mean DWw ± SEM,[11],19.0 ± 0.9 days
same,Mean TTWw ± SEM,[11],9.6 ± 0.7 days
same,Nw/NG,[11],89%
same,reduction of the AUC,"Example 7, daunorubicin 3 mg/kg sc, ICRF-187 250 mg/kg IP, p<0.05",51%
same,AUC,[12],28 (± 22) mm^2×days
same,DW,[12],16.0 (± 4.0) days
same,FW,[12],13%
same,TTW,[12],10.5 (± 3.5) days
same,AUC,[13],112 (± 37) mm^2×days
same,DW,[13],18.0 (± 0.0) days
same,FW,[13],22%
same,TTW,[13],16.5 (± 0.5) days
same,AUC,[14],692 (± 115) mm^2×days
same,DW,[14],20.6 (± 0.8) days
same,FW,[14],88%
same,TTW,[14],8.4 (± 0.6) days
same,AUC,[15],373 (± 48) mm^2×days
same,DW,[15],17.4 days
same,FW,[15],78%
same,TTW,[15],9.7 days
same,DW,[16],17.4 (± 0.6) days
same,TTW,[16],9.7 (± 0.5) days
same,AUC,[17],420 (± 206) mm^2×days
same,DW,[17],21.0 (± 4.0) days
same,FW,[17],43%
same,TTW,[17],7.0 (± 0.6) days
same,AUC,[18],927 (± 163) mm^2×days
same,DW,[18],24.9 (± 0.8) days
same,FW,[18],100%
same,TTW,[18],6.7 (± 0.6) days
same,AUC,[19],128 (± 34) mm^2×days
same,DW,[19],13.3 (± 1.2) days
same,FW,[19],75%
same,TTW,[19],17.7 (± 1.0) days
same,AUC,[20],479 (± 141) mm^2×days
same,DW,[20],19.3 (± 1.3) days
same,FW,[20],67%
same,TTW,[20],9.2 (± 1.2) days
same,AUC,[21],57 (± 57) mm^2×days
same,DW,[21],23.0 (± 0.0) days
same,FW,[21],25%
same,TTW,[21],4.0 (± 0.0) days
same,AUC,[22],662 (± 223) mm^2×days
same,DW,[22],19.4 (± 1.3) days
same,FW,[22],89%
same,TTW,[22],8.1 (± 0.5) days
same,AUC,[23],0 mm^2×days
same,FW,[23],0%
same,prevention of lesions,"daunorubicin induced lesions, ICRF-187 250 mg/kg IP three days in a row",completely prevented
same,protection by IP injection compared to IV administration,"daunorubicin induced wounds, ICRF-187 250 mg/kg",no statistically significant difference
same,"degree of protection, triple-treatment","daunorubicin, ICRF-187 62,5 or 125 mg/kg IP at 0, 3 and 6 hours",at least the same degree of protection as a single injection of 250 mg/kg ICRF-187 IP
same,protection with delayed administration,"daunorubicin, ICRF-187 administered 3 hours after",no different from the protection obtained by immediate ICRF-187 administration
same,protection with delayed administration,"daunorubicin, ICRF-187 delay 6 hours",protection was lost
same,treatment-related deaths,"mouse, in vivo",no treatment-related deaths
same,reduction in AUC,"pooled, daunorubicin 3 mg/kg SC, ICRF-187 125 mg/kg IP, p=0.0175 vs 250 mg/kg",45%
same,mean duration of wounds reduced by,[24],35%
same,mean time to wounds delayed by,[24],76%
same,mean AUC reduced by,"pooled, daunorubicin 3 mg/kg SC, single ICRF-187 250 mg/kg IP at t=0, p<0.0001",70%
